Measurements as given in US20250162988A1, “CRYSTALS OF VITAMIN D DERIVATIVE OR CRYSTALS OF SOLVATE THEREOF” (TEIJIN PHARMA LIMITED, priority 2022, published 2025).

Assays:
[1] = in vivo; cited from earlier work
[2] = Evaluation of brain penetration in mice (single oral dose, plasma and brain level by LC/MS/MS); type: in vivo, C57BL/6J mice; settings: mean ± S.D.
Protocol: The administration solution was administered orally to C57BL/6J mice (8 weeks old, male, n=3) at a single dose (1 mg/kg). Mice were euthanized at 6 points of 0.25, 0.5, 1, 2, 4, and 8 hours after administration, and plasma and brain sampling were performed. After preparing a homogenate from the collected brain using Tissue Lyser II (QIAGEN #85300), acetonitrile was added to the homogenate and the homogenate was centrifuged (TOMY DIGITAL BIOLOGY MX-307, 12000 rpm, 5 minutes) to extract the administered test compound contained in the brain. Similarly, the plasma was subjected to addition of acetonitrile and centrifugal separation to extract the administered test compound contained in the plasma. Each extracted sample was subjected to measurement of the concentration of administered test compound using LC/MS/MS (SHIMADZU UFLC/MS/MS (8050)).
The administration solution was administered orally to C57BL/6J mice (8 weeks old, male, n=3) at a single dose (0.2 mg/kg). Mice were euthanized at 6 points of 0.25, 0.5, 1, 2, 4, and 8 hours after administration, and plasma and brain sampling were performed. After preparing a homogenate from the collected brain using Tissue Lyser II (QIAGEN #85300), acetonitrile was added to the homogenate and the homogenate was centrifuged (TOMY DIGITAL BIOLOGY MX-307, 12000 rpm, 5 minutes) to extract the administered compound contained in the brain. Similarly, the plasma was subjected to addition of acetonitrile and centrifugal separation to extract the administered test compound contained in the plasma. Each extracted sample was subjected to measurement of the concentration of administered test compound using LC/MS/MS (SHIMADZU UFLC/MS/MS (8050)).

[3] = tested on: rat oligodendrocyte progenitor cells; test: Promotive activity of rat oligodendrocyte progenitor cell differentiation (MBP immunostaining); type: cell-based, SD rats; settings: vitamin D derivative 2 μM, T3 30 nM, cultured for 4 days
Protocol: The promotive activity of oligodendrocyte progenitor cell (OPC) differentiation of the vitamin D derivatives was evaluated by immunostaining of myelin basic protein (MBP).
Subsequently, oligodendrocyte progenitor cell separation medium was added to the flask, and the mixture was similarly shaken for about 22 hours (37° C., 200 rpm), and the supernatant was collected to prepare oligodendrocyte progenitor cells.
After cell seeding, a solution of the test compound or a solution prepared from DMSO with a differentiation medium were added to the cells such that the DMSO concentration in the wells was 0.1%. The cells were cultured for 4 days.

[4] = Test 1, 1 mg/kg single oral dose

Row | SMILES | Brain level at the time of brain Cmax [2, 4] [pmol/g] | Average value (mean) of the ratio (the number of MBP-positive cells/the number of Hoechst33342-positive cells) ([3]; Test 1) | further results
1 | C=C1/C(=C\C=C2/CCC[C@]3(C)[C@@H]([C@H](C)CCCC(C)(C)O)CC[C@@H]23)C[C@@H](O)C[C@@H]1O [1α,25-dihydroxyvitamin D3] | – | – | ratio of concentration in brain/concentration in blood [1]: 0.007±0.003
2 | C[C@H](CN1CC[C@@H](CC(F)F)C1)[C@H]1CC[C@H]2/C(=C/C=C3C[C@@H](O)C[C@H](O)C3)CCC[C@]12C [Compound (D), (1R,3R)-5-(2-((1R,3aS,7aR,E)-1-((S)-1-((S)-3-(2,2-difluoroethyl)pyrrolidin-1-yl)propan-2-yl)-7a-methyloctahydro-4H-inden-4-ylidene)ethylidene)cyclohexane-1,3-diol] | 80 ± 9 | – | Average value (mean) of the ratio (the number of MBP-positive cells/the number of Hoechst33342-positive cells) ([3]; Test 2): 0.53
3 | C[C@H](CCN1CCOCC1)[C@H]1CC[C@H]2/C(=C/C=C3C[C@@H](O)C[C@H](O)C3)CCC[C@]12C [Compound (E), (1R,3R)-5-(2-((1R,3aS,7aR,E)-7a-methyl-1-((R)-4-morpholinobutane-2-yl)octahydro-4H-inden-4-ylidene)ethylidene)cyclohexane-1,3-diol] | 595 ± 23 | – | Average value (mean) of the ratio (the number of MBP-positive cells/the number of Hoechst33342-positive cells) ([3]; Test 2): 0.36
4 | C[C@H](CN1CCOCC1(C)C)[C@H]1CC[C@H]2/C(=C/C=C3C[C@@H](O)C[C@H](O)C3)CCC[C@]12C [Compound (F), (1R,3R)-5-(2-((1R,3aS,7aR,E)-1-((S)-1-(3,3-dimethylmorpholino)propan-2-yl)-7a-methyloctahydro-4H-inden-4-ylidene)ethylidene)cyclohexane-1,3-diol] | – | – | Brain level at the time of brain Cmax ([2]; Test 2, 0.2 mg/kg single oral dose): 137.8 ± 11.5 pmol/g; Average value (mean) of the ratio (the number of MBP-positive cells/the number of Hoechst33342-positive cells) ([3]; Test 3): 0.50

More lines, main results first:

Row | Brain level at the time of brain Cmax [2, 4] [pmol/g] | SMILES | Average value (mean) of the ratio (the number of MBP-positive cells/the number of Hoechst33342-positive cells) ([3]; Test 1) | further results
5 | 529 ± 53 | C[C@H](CN1CC[C@H](C(F)F)C1)[C@H]1CC[C@H]2/C(=C/C=C3C[C@@H](O)C[C@H](O)C3)CCC[C@]12C [Compound (A), (1R,3R)-5-(2-((1R,3aS,7aR,E)-1-((S)-1-((S)-3-(difluoromethyl)pyrrolidin-1-yl)propan-2-yl)-7a-methyloctahydro-4H-inden-4-ylidene)ethylidene)cyclohexane-1,3-diol] | 0.47 | –
6 | 384 ± 40 | C[C@H](CN1CC[C@@H](C(F)F)C1)[C@H]1CC[C@H]2/C(=C/C=C3C[C@@H](O)C[C@H](O)C3)CCC[C@]12C [Compound (B), (1R,3R)-5-(2-((1R,3aS,7aR,E)-1-((S)-1-((R)-3-(difluoromethyl)pyrrolidin-1-yl)propan-2-yl)-7a-methyloctahydro-4H-inden-4-ylidene)ethylidene)cyclohexane-1,3-diol] | 0.38 | –
7 | 562 ± 50 | C[C@H](CN1CC[C@@H](C(C)(F)F)C1)[C@H]1CC[C@H]2/C(=C/C=C3C[C@@H](O)C[C@H](O)C3)CCC[C@]12C [Compound (C), (1R,3R)-5-(2-((1R,3aS,7aR,E)-1-((S)-1-((R)-3-(1,1-difluoroethyl)pyrrolidin-1-yl)propan-2-yl)-7a-methyloctahydro-4H-inden-4-ylidene)ethylidene)cyclohexane-1,3-diol] | 0.57 | –
